Reference: article PMC10584882 (Communications Biology, 2023)
Several values for one entry are separate records, joined by “and”; a condition that tells them apart may be missing. Equal values may be shown once. Entries after “also recorded” stand apart in the source; their conditions may differ.

Assays:
[1] = S-Calpeptin toxicity experiment in Golden Syrian hamsters (weight, blood cell count, histopathology); assay type: in vivo, Golden Syrian hamsters (Mesocricetus auratus); design: leukocytes / neutrophils / lymphocytes / monocytes: unit not given here; settings: for leukocytes / lymphocytes / monocytes / neutrophils: blood cell count
SARS-CoV-2 = test: Cytopathic effect inhibition assay in LC-HK2 cells; assay type: cell-based
[2] = 1 mg/kg S-Calpeptin, individual animals 1-3, 1 mg/kg
[3] = 2 mg/kg S-Calpeptin, individual animals 7-9, 2 mg/kg
[4] = 3 mg/kg S-Calpeptin, individual animals 10-12, 3 mg/kg

With CCCC[C@H](NC(=O)[C@H](CC(C)C)NC(=O)OCc1ccccc1)C(O)S(=O)(=O)[O-].[Na+] (some centres unmarked) [S-Calpeptin] the “body weight, summarized data, average” value ([1]; 1 mg/kg S-Calpeptin, day 0, relative to day 0) was 100%, the “body weight, summarized data, average” value ([1]; 1 mg/kg S-Calpeptin, day 1, relative to day 0) was 100.862% and the “body weight, individual data” value ([1]; 1 mg/kg S-Calpeptin, day 2, individual animals A1-A3) was 124 g. For the same compound, the “body weight, summarized data, average” value ([1]; 1 mg/kg S-Calpeptin, day 2, relative to day 0) was 100.893%, the “body weight, summarized data, average” value ([1]; 1 mg/kg S-Calpeptin, day 3, relative to day 0) was 100.862% and the “body weight, summarized data, average” value ([1]; 1 mg/kg S-Calpeptin, day 4, relative to day 0) was 101.724%. For the same compound, the “body weight, summarized data, average” value ([1]; 1 mg/kg S-Calpeptin, day 5, relative to day 0) was 102.852%, the “body weight, summarized data, average” value ([1]; 1 mg/kg S-Calpeptin, day 6, relative to day 0) was 102.288% and the “body weight, summarized data, average” value ([1]; 2 mg/kg S-Calpeptin, day 0, relative to day 0) was 100%. The “body weight, summarized data, average” value ([1]; 2 mg/kg S-Calpeptin, day 1, relative to day 0) was 100.285%, the “body weight, summarized data, average” value ([1]; 2 mg/kg S-Calpeptin, day 2, relative to day 0) was 100.287% and the “body weight, individual data” value ([1]; 2 mg/kg S-Calpeptin, day 3, individual animals A7-A9) was 120 g. The “body weight, summarized data, average” value ([1]; 2 mg/kg S-Calpeptin, day 3, relative to day 0) was 101.388%, the “body weight, summarized data, average” value ([1]; 2 mg/kg S-Calpeptin, day 4, relative to day 0) was 100.836% and the “body weight, summarized data, average” value ([1]; 2 mg/kg S-Calpeptin, day 5, relative to day 0) was 101.368%. For the same compound, the “body weight, individual data” value ([1]; 2 mg/kg S-Calpeptin, day 6, individual animals A7-A9) was 120 g, the “body weight, summarized data, average” value ([1]; 2 mg/kg S-Calpeptin, day 6, relative to day 0) was 101.919% and the “body weight, individual data” value ([1]; 3 mg/kg S-Calpeptin, day 0, individual animals A10-A12) was 124 g and 135 g. For the same compound, the “body weight, summarized data, average” value ([1]; 3 mg/kg S-Calpeptin, day 0, relative to day 0) was 100%, the “body weight, individual data” value ([1]; 3 mg/kg S-Calpeptin, day 1, individual animals A10-A12) was 124 g and 135 g and the “body weight, summarized data, average” value ([1]; 3 mg/kg S-Calpeptin, day 1, relative to day 0) was 100.275%. For the same compound, the “body weight, individual data” value ([1]; 3 mg/kg S-Calpeptin, day 2, individual animals A10-A12) was 124 g and 135 g, the “body weight, summarized data, average” value ([1]; 3 mg/kg S-Calpeptin, day 2, relative to day 0) was 100.275% and the “body weight, summarized data, average” value ([1]; 3 mg/kg S-Calpeptin, day 3, relative to day 0) was 101.582%. The “body weight, summarized data, average” value ([1]; 3 mg/kg S-Calpeptin, day 4, relative to day 0) was 102.133%, the “body weight, summarized data, average” value ([1]; 3 mg/kg S-Calpeptin, day 5, relative to day 0) was 102.402% and the “body weight, summarized data, average” value ([1]; 3 mg/kg S-Calpeptin, day 6, relative to day 0) was 102.671%. For the same compound, the leukocytes [1, 2] was 4150 and 4010 and 4200, the lymphocytes [1, 2] was 2407 and 2366 and 2310 and the monocytes [1, 2] was 581 and 521 and 798. The neutrophils [1, 2] was 1079 and 1083 and 924, the leukocytes [1, 3] was 1780 and 2200 and 1620 and the lymphocytes [1, 3] was 1104 and 748 and 486. The monocytes [1, 3] was 214 and 352 and 680, the neutrophils [1, 3] was 427 and 1056 and 389 and the leukocytes [1, 4] was 3000 and 1360 and 2190. For the same compound, the lymphocytes [1, 4] was 1860 and 653 and 1270, the monocytes [1, 4] was 450 and 163 and 350 and the neutrophils [1, 4] was 630 and 517 and 569. For the same compound, the “blood cell count finding (in words)” value ([1]; hamsters, 2 mg/kg or 3 mg/kg s.c. daily, end of seven-days protocol) was “marked leukopenia; also recorded: blood leukopenia”, the “acute toxicity-related clinical signs or weight loss (in words)” value ([1]; hamsters, 1, 2 or 3 mg/kg s.c. daily) was “no signs of acute toxicity; also recorded: did not display acute toxicity-related clinical signs” and the “side effects (in words)” value ([1]; hamsters, daily dose of 1 mg/kg s.c. over seven days) was “no apparent side effects”. For the same compound, the EC50 (SARS-CoV-2; LC-HK2, CellTiter-Glo, 72 h post-infection, read-out: CPE inhibition EC50) was 70 nM and the “CPE inhibition (%)” value (SARS-CoV-2; LC-HK2, 0.000000000001 μM (first of two lines so printed, r18)) was 0%.
